These results are taken from patent publication US10385057B2, “Pyrazole compounds and methods of making and using same” (Lundbeck La Jolla Research Center, Inc., priority 2015, dated 2019).

For one assay, the target named is T1, MAGL (Mus musculus, UniProt O35678).
T1 construct: mouse brain membrane fraction or cell lysates for mouse assays; from tissue
T1 sequence (O35678 1-303): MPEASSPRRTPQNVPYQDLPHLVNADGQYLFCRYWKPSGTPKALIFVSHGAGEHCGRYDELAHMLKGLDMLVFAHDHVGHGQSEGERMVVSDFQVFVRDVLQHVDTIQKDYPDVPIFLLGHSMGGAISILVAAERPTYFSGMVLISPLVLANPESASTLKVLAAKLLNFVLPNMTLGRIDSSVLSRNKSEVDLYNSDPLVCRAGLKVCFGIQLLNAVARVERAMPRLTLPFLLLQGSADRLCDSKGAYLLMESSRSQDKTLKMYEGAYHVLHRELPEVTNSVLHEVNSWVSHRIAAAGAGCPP
Put plainly: In vitro competitive activity-based protein profiling, mouse MAGL. The class given is biochemical. The following applies: for inhibition at 1 µM: read-out: MAGL % inh. 1 μM (mouse). An outline of the steps:
(§1)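 Activity measured as fluorescent gel-band intensity of MAGL and FAAH after SDS-PAGE. Before labelling with FP-Rh or HT-01 (30 min, 37 °C), proteomes at 1.0 mg/mL (mouse brain membrane or lysates; human prefrontal cortex or cell membranes) were exposed to varying inhibitor concentrations for 30 min at 37 °C.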

A further assay has as its target T2, FAAH (Mus musculus, UniProt O08914).
T2 construct: mouse brain membrane fraction or cell lysates for mouse assays; from tissue
T2 sequence (O08914 1-579): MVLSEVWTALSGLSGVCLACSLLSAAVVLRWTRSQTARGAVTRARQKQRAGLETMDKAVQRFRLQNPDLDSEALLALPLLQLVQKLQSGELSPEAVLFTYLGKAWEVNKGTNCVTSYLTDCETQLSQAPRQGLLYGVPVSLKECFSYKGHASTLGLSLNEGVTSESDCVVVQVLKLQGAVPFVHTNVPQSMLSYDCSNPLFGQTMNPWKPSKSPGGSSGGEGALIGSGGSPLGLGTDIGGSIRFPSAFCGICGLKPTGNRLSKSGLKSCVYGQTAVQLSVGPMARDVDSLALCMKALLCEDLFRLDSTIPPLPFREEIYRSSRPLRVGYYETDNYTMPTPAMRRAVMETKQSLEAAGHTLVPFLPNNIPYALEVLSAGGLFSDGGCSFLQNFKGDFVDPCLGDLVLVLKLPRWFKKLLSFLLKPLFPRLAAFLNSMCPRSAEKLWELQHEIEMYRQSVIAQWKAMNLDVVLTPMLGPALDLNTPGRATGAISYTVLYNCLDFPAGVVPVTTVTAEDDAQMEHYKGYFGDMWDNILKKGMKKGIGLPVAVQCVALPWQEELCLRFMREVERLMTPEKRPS
Briefly: In vitro competitive activity-based protein profiling, mouse FAAH. The class given is biochemical. The conditions noted are these: for inhibition at 1 µM: read-out: FAAH % inh. 1 μM (mouse). In a few lines: as §1

Bounds are passed on as bounds.

Take `O=C(N1C[C@H]2C[C@H](NCc3cccc(Cl)c3)C[C@H]2C1)n1cc(Cl)cn1` [Example 75, (4-chloro-1H-pyrazol-1-yl)(trans-5-((3-chlorobenzyl)amino)hexahydrocyclopenta[c]pyrrol-2(1H)-yl)methanone]: the 50% inhibitory concentration (IC50) on MAGL and on FAAH was not above 100 nM in each case. For the same compound, the inhibition at 1 µM at MAGL and at FAAH (1 μM) was not below 75% each time.
Take `CN(Cc1ccc(C(F)(F)F)cc1)[C@@H]1C[C@@H]2CN(C(=O)n3cc(Cl)cn3)C[C@@H]2C1` [Example 76, (4-chloro-1H-pyrazol-1-yl)(cis-5-(methyl(4-(trifluoromethyl)benzyl)amino)hexahydrocyclopenta[c]pyrrol-2(1H)-yl)methanone]: the IC50 at MAGL and on FAAH was not above 100 nM in each case. The inhibition at 1 µM at MAGL and at FAAH (1 μM) was not below 75% in each case.
Consider `CN(Cc1ccc(N2CCOCC2)cc1)[C@@H]1C[C@@H]2CN(C(=O)n3cc(Cl)cn3)C[C@@H]2C1` [Example 77, (4-chloro-1H-pyrazol-1-yl)(cis-5-(methyl(4-morpholinobenzyl)amino)hexahydrocyclopenta[c]pyrrol-2(1H)-yl)methanone], for which the IC50 on MAGL lay in the range of 1000 to 10000 nM; at FAAH, 100 to 1000 nM. Moreover, the figures for the inhibition at 1 µM at MAGL and at FAAH (1 μM) were 50 to 75% and not below 75%, respectively.
`CN(Cc1ccc(C(F)(F)F)cc1)[C@H]1C[C@@H]2CN(C(=O)n3cc(Cl)cn3)C[C@@H]2C1` [Example 78, (4-chloro-1H-pyrazol-1-yl)(trans-5-(methyl(4-(trifluoromethyl)benzyl)amino)hexahydrocyclopenta[c]pyrrol-2(1H)-yl)methanone]: the half-maximal inhibitory concentration (IC50) at MAGL and on FAAH was not above 100 nM each time. Besides, the inhibition at 1 µM at MAGL and at FAAH (1 μM) was not below 75% each time.
In the case of `CN(Cc1ccc(N2CCOCC2)cc1)[C@H]1C[C@@H]2CN(C(=O)n3cc(Cl)cn3)C[C@@H]2C1` [Example 79, (4-chloro-1H-pyrazol-1-yl)(trans-5-(methyl(4-morpholinobenzyl)amino)hexahydrocyclopenta[c]pyrrol-2(1H)-yl)methanone], the inhibition at 1 µM was 50 to 75% at MAGL and not below 75% on FAAH (1 μM).
Consider `CN(Cc1cccc(C(F)(F)F)c1)[C@@H]1C[C@@H]2CN(C(=O)n3cc(Cl)cn3)C[C@@H]2C1` [Example 80, (4-chloro-1H-pyrazol-1-yl)(cis-5-(methyl(3-(trifluoromethyl)benzyl)amino)hexahydrocyclopenta[c]pyrrol-2(1H)-yl)methanone], for which the IC50 on MAGL and on FAAH was not above 100 nM each time. The inhibition at 1 µM at MAGL and on FAAH (1 μM) was not below 75% each time.
On to `CN(Cc1cccc(N2CCOCC2)c1)[C@@H]1C[C@@H]2CN(C(=O)n3cc(Cl)cn3)C[C@@H]2C1` [Example 81, (4-chloro-1H-pyrazol-1-yl)(cis-5-(methyl(3-morpholinobenzyl)amino)hexahydrocyclopenta[c]pyrrol-2(1H)-yl)methanone], for which the IC50 is 1000 to 10000 nM on MAGL and not above 100 nM at FAAH. In addition, the inhibition at 1 µM at MAGL was 25 to 50%; on FAAH (1 μM) it was not below 75%.
In the case of `CN(Cc1cccc(N2CCOCC2)c1)[C@H]1C[C@@H]2CN(C(=O)n3cc(Cl)cn3)C[C@@H]2C1` [Example 82, (4-chloro-1H-pyrazol-1-yl)(trans-5-(methyl(3-morpholinobenzyl)amino)hexahydrocyclopenta[c]pyrrol-2(1H)-yl)methanone], the IC50 on MAGL and at FAAH was 100 to 1000 nM throughout. The inhibition at 1 µM on MAGL and on FAAH (1 μM) was not below 75% throughout.
For the compound `CN(Cc1cccc(C(F)(F)F)c1)[C@H]1C[C@@H]2CN(C(=O)n3cc(Cl)cn3)C[C@@H]2C1` [Example 83, (4-chloro-1H-pyrazol-1-yl)(trans-5-(methyl(3-(trifluoromethyl)benzyl)amino)hexahydrocyclopenta[c]pyrrol-2(1H)-yl)methanone], the IC50 on MAGL and at FAAH was not above 100 nM each time. Also, the inhibition at 1 µM at MAGL and at FAAH (1 μM) was not below 75% throughout.
Consider `CNC(=O)c1cnn(C(=O)N2C[C@H]3C[C@@H](N(C)Cc4ccccc4Cl)C[C@H]3C2)c1` [Example 84, 1-(cis-5-((2-chlorobenzyl)(methyl)amino)octahydrocyclopenta[c]pyrrole-2-carbonyl)-N-methyl-1H-pyrazole-4-carboxamide], for which, on MAGL, the “MAGL % inh. 1 μM (mouse)” value is reported as “A (% inhibition greater than or equal to 75%)”. The “FAAH % inh. 1 μM (mouse)” value on FAAH (1 μM) is on record as “A (% inhibition greater than or equal to 75%)”.
Take `CN(Cc1ccccc1Cl)[C@@H]1C[C@@H]2CN(C(=O)n3cc(C(=O)N4CCOCC4)cn3)C[C@@H]2C1` [Example 85, (cis-5-((2-chlorobenzyl)(methyl)amino)hexahydrocyclopenta[c]pyrrol-2(1H)-yl)(4-(morpholine-4-carbonyl)-1H-pyrazol-1-yl)methanone]: the inhibition at 1 µM was 50 to 75% at MAGL and not below 75% on FAAH (1 μM).
The corresponding values for `CN(Cc1ccccc1Cl)[C@H]1C[C@@H]2CN(C(=O)n3cc(C(=O)N4CCOCC4)cn3)C[C@@H]2C1` [Example 86, (trans-5-((2-chlorobenzyl)(methyl)amino)hexahydrocyclopenta[c]pyrrol-2(1H)-yl)(4-(morpholine-4-carbonyl)-1H-pyrazol-1-yl)methanone] are 50 to 75% and not below 75%.
The corresponding values for `CN(Cc1ccccc1Cl)[C@@H]1C[C@@H]2CN(C(=O)n3cc(C(=O)N4CCN(C5CC5)CC4)cn3)C[C@@H]2C1` [Example 87, (cis-5-((2-chlorobenzyl)(methyl)amino)hexahydrocyclopenta[c]pyrrol-2(1H)-yl)(4-(4-cyclopropylpiperazine-1-carbonyl)-1H-pyrazol-1-yl)methanone] are 25 to 50% and 0 to 25%.
As to `CN(Cc1ccccc1Cl)[C@@H]1C[C@@H]2CN(C(=O)n3cc(C(=O)N4CCCC4)cn3)C[C@@H]2C1` [Example 89, (cis-5-((2-chlorobenzyl)(methyl)amino)hexahydrocyclopenta[c]pyrrol-2(1H)-yl)(4-(pyrrolidine-1-carbonyl)-1H-pyrazol-1-yl)methanone], on MAGL, the “MAGL % inh. 1 μM (mouse)” value was “C (% inhibition greater than or equal to 25% and less than 50%)”. The inhibition at 1 µM at FAAH (1 μM) is not below 75%.
On to `CNC(=O)c1cnn(C(=O)N2C[C@H]3C[C@@H](N(C)Cc4ccccc4C(F)(F)F)C[C@H]3C2)c1` [Example 91, N-methyl-1-(cis-5-(methyl(2-(trifluoromethyl)benzyl)amino)octahydrocyclopenta[c]pyrrole-2-carbonyl)-1H-pyrazole-4-carboxamide], for which the values for the inhibition at 1 µM at MAGL and on FAAH (1 μM) were 50 to 75% and not below 75%, respectively.
On to `CN(Cc1ccccc1C(F)(F)F)[C@@H]1C[C@@H]2CN(C(=O)n3cc(C(=O)N4CCCC4)cn3)C[C@@H]2C1` [Example 92, (cis-5-(methyl(2-(trifluoromethyl)benzyl)amino)hexahydrocyclopenta[c]pyrrol-2(1H)-yl)(4-(pyrrolidine-1-carbonyl)-1H-pyrazol-1-yl)methanone], for which the inhibition at 1 µM on MAGL and at FAAH (1 μM) was not below 75% each time.
For the compound `CN(Cc1ccccc1C(F)(F)F)[C@@H]1C[C@@H]2CN(C(=O)n3cc(C(=O)N4CCOCC4)cn3)C[C@@H]2C1` [Example 93, (cis-5-(methyl(2-(trifluoromethyl)benzyl)amino)hexahydrocyclopenta[c]pyrrol-2(1H)-yl)(4-(morpholine-4-carbonyl)-1H-pyrazol-1-yl)methanone], the values for the inhibition at 1 µM on MAGL and on FAAH (1 μM) were 50 to 75% and not below 75%, respectively.
Turning to `CN(Cc1ccccc1C(F)(F)F)[C@@H]1C[C@@H]2CN(C(=O)n3cc(C(=O)N4CCN(C5CC5)CC4)cn3)C[C@@H]2C1` [Example 94, (4-cyclopropylpiperazin-1-yl)(1-(cis-5-(methyl(2-(trifluoromethyl)benzyl)amino)octahydrocyclopenta[c]pyrrole-2-carbonyl)-1H-pyrazol-4-yl)methanone], the inhibition at 1 µM is not below 75% on MAGL and 0 to 25% at FAAH (1 μM).
